Source: patent US9290507B2, “B-RAF kinase inhibitors” (Boehringer Ingelheim International GmbH, priority 2010, dated 2016)
pIC50: −log10 of the molar value.

Target: B-Raf (V600E)-kinase (Homo sapiens (Human), UniProt P15056, V600E)
Test: Kinase test B-Raf (V600E)
Format: biochemical
Conditions: 1 h preincubation, 250 μM ATP
Method: In a dilution series 10 μL/well of test substance solution are placed in a multiwell plate. The dilution series is selected so that generally a range of concentrations of 2 μM to 0.119 nM or 0.017 nM is covered. If necessary the initial concentration of 2 μM is changed to 50 μM, 10 μM or 0.4 μM or 0.2857 μM and further dilution is carried out accordingly. The final concentration of DMSO is 5%. 10 μL/well of the B-Raf (V600E)-kinase solution are pipetted in (containing 0.5 ng B-Raf (V600E)-kinase (e.g. from Upstate) in 20 mM Tris-HCl pH 7.5, 0.1 mM EDTA, 0.1 mM EGTA, 0.286 mM sodium orthovanadate, 10% glycerol, 1 mg/mL bovine serum albumin, 1 mM dithiothreitol) and the mixture is incubated for 1 h at RT under with shaking. The kinase reaction is started by the addition of 20 μL/well ATP solution [final concentration: 250 μM ATP, 30 mM Tris-HCl pH 7.5, 0.02% Brij, 0.2 mM sodium orthovanadate, 10 mM magnesium acetate, 0.1 mM EGTA, phosphatase cocktail (Sigma, #P2850, dilution recommended by the manufacturer)] and 10 μL/well MEK1 solution [containing 50 ng biotinylated MEK1 (prepared from purified MEK1 according to standard procedure, e.g. with EZ-Link Sulpho-NHS-LC-Biotin reagent, Pierce, #21335)] and carried out for 60 min at RT with constant shaking. The reaction is stopped by the addition of 12 μL/well of a 100 mM EDTA solution and incubation is continued for a further 5 min. 55 μL/well of the reaction solution are transferred into a streptavidin-coated plate (e.g. Streptawell HighBond, Roche, #11989685001) and shaken gently for 1 h at RT, in order to bind biotinylated MEK1 to the plate. After elimination of the liquid the plate is washed five times with 200 μL/well of 1×PBS and 100 μL/well solution of primary antibody plus europium-labelled secondary antibody [Anti Phospho-MEK (Ser217/221), Cell Signaling, #9121 and Eu-N1 labelled goat-anti-rabbit antibody, Perkin Elmer, #AD0105] is added, the primary antibody is diluted 1:2000 and the secondary antibody is diluted to 0.4-0.5 μg/mL in Delfia Assay Buffer (Perkin Elmer, #1244-111). After 1 h shaking at RT the solution is poured away and washed five times with 200 μL/well Delfia Wash Buffer (Perkin Elmer, #4010-0010/#1244-114). After the addition of 200 μL/well Enhancement Solution (Perkin Elmer, #4001-0010/#1244-105) the mixture is shaken for 10 min at RT and then measured in a Wallac Victor using the program “Delfia Time Resolved Fluorescence (Europium)”. IC50 values are obtained from these dosage-activity curves using a software program (GraphPadPrizm).

Chain of B-Raf (V600E)-kinase (P15056 whole entry V600E): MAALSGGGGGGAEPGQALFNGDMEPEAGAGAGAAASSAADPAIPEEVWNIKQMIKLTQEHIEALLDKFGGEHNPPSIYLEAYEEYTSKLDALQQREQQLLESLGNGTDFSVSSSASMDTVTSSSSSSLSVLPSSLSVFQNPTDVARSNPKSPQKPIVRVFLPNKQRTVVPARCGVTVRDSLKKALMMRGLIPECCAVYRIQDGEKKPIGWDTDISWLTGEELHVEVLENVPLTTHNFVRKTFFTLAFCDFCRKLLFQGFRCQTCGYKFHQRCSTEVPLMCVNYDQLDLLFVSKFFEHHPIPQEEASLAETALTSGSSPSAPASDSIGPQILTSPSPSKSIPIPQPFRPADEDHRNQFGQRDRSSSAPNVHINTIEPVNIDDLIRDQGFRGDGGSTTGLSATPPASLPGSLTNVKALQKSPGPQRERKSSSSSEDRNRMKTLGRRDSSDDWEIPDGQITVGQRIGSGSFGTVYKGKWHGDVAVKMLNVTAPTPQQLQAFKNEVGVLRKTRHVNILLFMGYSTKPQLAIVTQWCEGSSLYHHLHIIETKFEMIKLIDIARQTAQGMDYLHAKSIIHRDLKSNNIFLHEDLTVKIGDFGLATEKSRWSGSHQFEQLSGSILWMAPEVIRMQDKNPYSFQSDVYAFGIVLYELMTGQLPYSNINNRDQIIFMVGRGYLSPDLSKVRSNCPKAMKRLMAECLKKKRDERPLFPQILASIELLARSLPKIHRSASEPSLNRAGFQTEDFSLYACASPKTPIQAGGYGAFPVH

| pIC50 | SMILES |
| --- | --- |
| 7.80 | Cc1ccc(NC(=O)c2cc(CN3CCN(C)CC3)c(C(C)(C)C)o2)cc1-n1cc(-c2cncc(N3CCOCC3)c2)nn1 [II-42] |
| 7.96 | COCCN(C)c1cncc(-c2cn(-c3cc(C(=O)Nc4cc(C(C)(C)C)on4)ccc3C)nn2)c1 [I-53] |
| 7.96 | CCCN1CCN(c2cncc(-c3cn(-c4cc(NC(=O)c5cc(C)n(C(C)(C)C)n5)ccc4C)nn3)c2)CC1 [II-37] |
| 7.92 | Cc1ccc(C(=O)Nc2cc(C(C)(C)C)on2)cc1-n1cc(-c2cncc(N3CCN(C(C)(C)C)CC3)c2)nn1 [I-4] |
| 8.05 | Cc1ccc(C(=O)Nc2cc(C(F)(F)F)ccn2)cc1-n1cc(-c2cncc(N3CC[C@H](N(C)C)C3)c2)nn1 [I-79] |
| 8.30 | Cc1ccc(C(=O)Nc2cc(C(F)(F)F)ccn2)cc1-n1cc(-c2cncc(N3CCNCC3)c2)nn1 [I-77] |
| 8.00 | Cc1ccc(C(=O)Nc2cc(C(C)(C)C)on2)cc1-n1cc(-c2cncc(NC3CCOCC3)c2)nn1 [I-38] |
| 8.15 | Cc1ccc(C(=O)Nc2cc(C(C)(C)C)on2)cc1-n1cc(-c2cncc(NCCN(C)C)c2)nn1 [I-46] |
| 7.92 | Cc1ccc(C(=O)Nc2cc(C(C)(C)C)on2)cc1-n1cc(-c2cncc(N3CCC(N(C)C)CC3)c2)nn1 [I-51] |
| 7.68 | Cc1ccc(C(=O)Nc2cc(C(F)(F)F)ccn2)cc1-n1cc(-c2cncc(NC3CCN(C)CC3)c2)nn1 [I-76] |
| 7.66 | Cc1ccc(C(=O)Nc2cc(C(C)(C)C)on2)cc1-n1cc(-c2cncc(N3CCN(CC4CCCO4)CC3)c2)nn1 (centres unmarked) [I-8] |
| 7.74 | Cc1ccc(C(=O)Nc2cc(C(C)(C)C)on2)cc1-n1cc(-c2cncc(NC(C)(C)C)c2)nn1 [I-12] |
| 7.85 | Cc1ccc(C(=O)Nc2cc(C(C)(C)C)on2)cc1-n1cc(-c2cncc(N3CCN(CCN4CCOCC4)CC3)c2)nn1 [I-16] |
| 7.80 | Cc1ccc(C(=O)Nc2cc(C(C)(C)C)on2)cc1-n1cc(-c2cncc(N3CCCOCC3)c2)nn1 [I-17] |
| 8.00 | Cc1ccc(NC(=O)c2cc(CNCCN(C)C)c(C(C)(C)C)o2)cc1-n1cc(-c2cncc(N3CCOCC3)c2)nn1 [II-45] |
| 8.70 | Cc1ccc(NC(=O)c2ccc(C(C)(C)C)o2)cc1-n1cc(-c2cncc(N3CCN(C)CC3)c2)nn1 [II-15] |
| 7.92 | Cc1ccc(C(=O)Nc2cc(C(C)(C)C)on2)cc1-n1cc(-c2cncc(N3CCC(CN(C)C)CC3)c2)nn1 [I-9] |
| 7.89 | Cc1ccc(NC(=O)c2cc(C)n(C(C)(C)C)n2)cc1-n1cc(-c2cncc(N3CCN(C(C)C)CC3)c2)nn1 [II-36] |
| 8.05 | Cc1ccc(C(=O)Nc2cc(C(C)(C)C)on2)cc1-n1cc(-c2cncc(NCC3CCCO3)c2)nn1 (centres unmarked) [I-34] |
| 8.05 | Cc1ccc(NC(=O)c2cc(C)n(C(C)(C)C)n2)cc1-n1cc(-c2cncc(N3CCCN(C)CC3)c2)nn1 [II-39] |
| 7.96 | Cc1ccc(C(=O)Nc2cc(C(F)(F)F)ccn2)cc1-n1cc(-c2cncc(NC3CCOC3)c2)nn1 (centres unmarked) [I-70] |
| 8.15 | Cc1ccc(C(=O)Nc2cc(C(F)(F)F)ccn2)cc1-n1cc(-c2cncc(N3CCN(C)CC3)c2)nn1 [I-83] |
| 8.22 | Cc1ccc(C(=O)Nc2cc(C(C)(C)C)on2)cc1-n1cc(-c2cncc(N3CCC(N4CCN(C)CC4)C3)c2)nn1 (centres unmarked) [I-89] |
| 6.85 | Cc1ccc(NC(=O)c2ccc(C(C)(C)C)s2)cc1-n1cc(-c2cncc(N3CCN(C(=O)OC(C)(C)C)CC3)c2)nn1 [II-23] |
| 7.96 | Cc1ccc(NC(=O)c2cc(C)n(C(C)(C)C)n2)cc1-n1cc(-c2cncc(N3CCN(C)CC3)c2)nn1 [II-38] |
| 7.82 | Cc1ccc(C(=O)Nc2cc(C(F)(F)F)ccn2)cc1-n1cc(-c2cncc(N3CC[C@@H](N(C)C)C3)c2)nn1 [I-80] |
| 8.00 | Cc1ccc(C(=O)Nc2cc(C(F)(F)F)ccn2)cc1-n1cc(-c2cncc(N(C)CCN(C)C)c2)nn1 [I-86] |
| 7.54 | COCCN1C(C)CN(c2cncc(-c3cn(-c4cc(C(=O)Nc5cc(C(C)(C)C)on5)ccc4C)nn3)c2)CC1C (centres unmarked) [I-45] |
| 7.96 | Cc1ccc(C(=O)Nc2cc(C(F)(F)F)ccn2)cc1-n1cc(-c2cncc(NCC3CCCO3)c2)nn1 (centres unmarked) [I-58] |
